According to publication PMC6801405, “Discovery of 3-Arylquinoxaline Derivatives as Potential Anti-Dengue Virus Agents” (International Journal of Molecular Sciences, 2019):
Like-named read-outs stand apart in the source and are kept apart here.

Columns and labels:
[1] = system: DENV2; details: DENV2 in VERO-B cells; cited from earlier work
[2] = system: DENV; design: method as in PMID 27750144; details: against DENV; cited from earlier work
[3] = system: DENV-2; design: method as in PMID 29031073; details: cited from earlier work; for EC50: anti-DENV-2 activity
[4] = system: DENV2; test: microbe, parasite or virus in culture; type: cell-based, dengue virus; details: for SI (selectivity index, CC50/EC50): CC50 Huh-7 / EC50 DENV; for EC50: DENV2, DENV replication, read-out: EC50 (concentration resulting in a 50% inhibition in virus production)
Procedure: Anti-DENV activities were determined by firefly luciferase activity.
Huh-7-DV-Fluc cells were seeded in 24-well plates at a density of 2 × 10^4 cells per well, and treated with the 3-arylquinoxaline compounds at two concentrations (1 and 10 μM) or 0.1% DMSO as control. After three days of incubation, the luciferase activity assay was performed using the Bright-Glo Luciferase assay system (Promega, Madison, WI, USA) according to the manufacturer’s instructions.

[5] = system: Huh-7 cells; test: Cytotoxicity assay (XTT method); type: cell-based, Human; details: Huh-7 cells
Procedure: (§1) For cytotoxicity tests, run in parallel with antiviral assays, plates at an initial density of 5 × 10^3 cells/well were treated with or without serial dilutions of test compounds. Cell viability was determined after 72 h at 37 °C in a humidified CO2 (5%) atmosphere by the (2,3-bis[2-methyloxy-4-nitro-5-sulfophenyl]-2H-tetrazolium-5-carboxanilide) (XTT) method.

[6] = Cytotoxicity assay (XTT method); type: cell-based, Human; details: human, mean ± SD; for CC50 at 72 h: uninfected Huh-7 cells, read-out: CC50 (concentration causing a 50% growth inhibition of uninfected Huh-7 cells)
Procedure: as §1

[7] = system: Huh-7 cells; design: method as in PMID 29031073; details: cited from earlier work
[8] = system: DENV2; design: method as in PMID 29031073; details: cited from earlier work

SMILES: O=C(NCc1ccc(-c2ccncc2)cc1)c1nccnc1C(=O)Nc1ccc(F)cc1 [Compound 1, N^2-(4-fluorophenyl)-N^3-[4-(pyridin-4-yl)benzyl]pyrazine-2,3-dicarboxamide]
- EC50 [1]: 0.93 µM

SMILES: Cc1ccc(Cc2nc(Cc3ccc(C)cc3-c3cc(C)n[nH]3)c3ccccc3n2)cc1 [Compound 2, 4-[4-methyl-2-(3-methyl-1H-pyrazol-5-yl)benzyl)-2-(4-methylbenzyl)quinazoline]
- EC50 [2]: 2.6 µM

SMILES: COc1ccc(-c2cc(-c3ccc4cc(F)ccc4n3)n(-c3ccc(S(N)(=O)=O)cc3)n2)cc1 [Compound 5, 4-[5-(6-fluoroquinolin-2-yl)-3-(4-methoxyphenyl)-1H-pyrazol-1-yl]benzenesulfonamide]
- EC50 [3]: 0.81 µM
- fold more active anti-DENV-2 activity than ribavirin [3]: approximately 10 fold

SMILES: COc1ccc(C(=O)c2nc3ccccc3nc2-c2ccccc2)cc1 [Compound 21b, (4-Methoxyphenyl)(3-phenylquinoxalin-2-yl)methanone]
- anti-DENV activity in words ([4]; 10 μM, >32% inhibition of DENV-2 at 10 μM considered as active): highly active
- DENV2 % Inhibition at 10 μM ([4]; 10 μM, Huh-7-DV-Fluc cells, three days, mean ± SD): 51.85 ± 3.52%
- SI (selectivity index, CC50/EC50) [4]: >61.54
- inhibition at 1 µM ([4]; Dengue virus, DENV2, 72 h, 1 μM, Huh-7-DV-Fluc cells, three days, mean ± SD): 42.8 ± 5.13%
- inhibition at 10 µM ([4]; Dengue virus, DENV2, 72 h, 10 μM, Huh-7-DV-Fluc cells, three days, mean ± SD): 51%
- EC50 ([4]; Dengue virus, mean ± SD): 3.25 ± 0.89 µM
- melting point: 130 to 132.4 °C
- cytotoxicity in words [5]: non-cytotoxic
- viability at 72 h, 20 µM ([6]; Huh-7 cells, 20 μM, 72 h, XTT, read-out: Huh-7 Cell % viability at 20 μM): 106 ± 3.12%
- viability at 72 h, 200 µM ([6]; Huh-7 cells, 200 μM, 72 h, XTT, read-out: Huh-7 Cell % viability at 200 μM): 95.1 ± 4.32%
- CC50 at 72 h [6]: > 200 µM

SMILES: NC(=O)c1ncn([C@@H]2O[C@H](CO)[C@@H](O)[C@H]2O)n1 [Ribavirin]
- SI (selectivity index, CC50/EC50) [4]: 4.47
- EC50 ([4]; Dengue virus, mean ± SD): 12.6 ± 1.17 µM
- Huh-7 Cell % viability at 20 μM ([7]; 20 μM): 71.37 ± 1.31%
- Huh-7 Cell % viability at 200 μM ([7]; 200 μM): 14.36 ± 2.14%
- EC50 [3]: 12.6 µM
- CC50 at 72 h [6]: 56.3 ± 2.32 µM
- DENV2 % Inhibition at 1 μM ([8]; 1 μM): 10.14 ± 1.98%
- DENV2 % Inhibition at 10 μM ([8]; 10 μM): 32.53 ± 2.30%
